Assay results as given in patent US11739261B2, “Fluorescent probes for acid detection” (THE HONG KONG UNIVERSITY OF SCIENCE AND TECHNOLOGY, priority 2019, dated 2023).

Experiment: Acid response study of TPI-C in the aggregation state (PL intensity)
Format: physicochemical
Protocol: FIGS. 1A-1C depict PL spectra of TPI-C (10 μM in THF/hexane mixtures with fH=99%) with adding (1A) HCOOH at different concentrations; (1B) CH3COOH at different concentrations; and (1C) CF3COOH at different concentrations.
FIG. 1D is a graph of relative PL intensity (I/I0) at different acid concentrations (x-axis represents acid concentration at (a) 0 M, (b) 1×10^−20 M, (c) 1×10^−14 M and (d) 1×10^−8 M, respectively).
An acid response study of TPI-C in the aggregation state was performed first. The fluorescent intensity response of TPI-C was investigated by adding different acids with various concentrations. In general, the fluorescent intensity of TPI-C was enhanced upon adding the acid. TPI-C responded in this manner to the formic acid, acetic acid (AcOH) and trifluoroacetic acid (TFA) at concentrations as low as 10^−20 M. For the formic acid, its highest intensity enhancement was around 55% at the acid concentration level of 10^−20 M, as shown in FIG. 1A. When AcOH (1×10^−20 M, 1 μL) and TFA (1×10^−20 M, 1 μL) were added to the TPI-C solution, the intensity enhancement of TPI-C was around 120% (FIG. 1B) and 96% (FIG. 1C), respectively.

SMILES: CCCCCCCCn1c(-c2ccc(OC(=O)NCC)cc2)nc(-c2ccccc2)c1-c1ccccc1 [TPI-C]
- fluorescent intensity enhancement (AcOH 1×10^−20 M, 1 μL added to TPI-C solution): around 120%
- fluorescent intensity enhancement (TFA 1×10^−20 M, 1 μL added to TPI-C solution): ~96%
- fluorescent intensity enhancement (formic acid 10^−20 M, TPI-C 10 μM in THF/hexane fH=99%, highest enhancement): around 55%
- acid concentration at which fluorescent intensity is enhanced (as low as) (formic acid, AcOH, TFA): 10^−20 M
